Experimental data from patent US5912237A, “Method of synthesis of desulfated heparin and use thereof for inhibition of elastase and cathespin” (Carolinas HealthCare System, priority 1997, dated 1999).
Values joined by “and” are separate entries in the source; they are usually repeats but may differ in a detail not shown here. Equal entries are not always repeated. “Also recorded” adds a separate entry of the source.

How the values were obtained:
[1] = tested on: human polymorphonuclear leucocyte elastase (HLE); details: cited from earlier work
[2] = tested on: human leukocyte elastase (HLE)-mediated lung injury; test: HLE-mediated lung injury in hamsters, bronchoalveolar lavage; format: in vivo, golden Syrian hamsters; details: hamster; for PMN in bronchoalveolar lavage fluid / Protein in bronchoalveolar lavage fluid / Total Hemoglobin in bronchoalveolar lavage fluid: intratracheal 500 μg followed by HLE 100 μg, 24 hours
Method: The ability of desulfated heparin to prevent human leukocyte elastase (HLE)-mediated lung injury was assessed in female golden Syrian hamsters (Harlan Industries, Indianapolis, Ind.) weighing 90 to 110 g. Phenobarbital-anesthetized hamsters were injected intratracheally with 0.25 ml sterile 0.9% saline (NS), 0.25 ml NS containing HLE (100 μg), or 0.25 ml NS containing 500 μg of heparin (Sigma) or 2-O-desulfated heparin according to Example III followed by 0.25 ml NS with HLE. Animals were killed by exsanguination 24 hours after treatment. The throat was opened and lungs dissected en bloc. The trachea was cannulated with polyethylene tubing and lavaged with five sequential aliquots of 3 ml NS. Lavage fluid was centrifuged at 200 Xg for 10 minutes. The resulting cell pellet was re-suspended in 1 ml Hank's balanced salt solution (HBSS) for performing cell count and differentials. The supernatant was assayed for protein and hemoglobin, as indices of acute injury.

[3] = tested on: human leukocyte elastase (HLE); test: HLE degradation of 3H-elastin; format: biochemical; details: substrate 3H-Elastin
Method: Also, bovine ligament elastin was prepared according to B. C. Starcher, Anal. Biochem. (1976) 74:441-447. The elastin was assessed for purity by amino acid analysis. Its degradation was assayed using elastin radiolabeled with ^3 H-NaBH4, following the methods described in P. J. Stone, et al., Methods Enzymol. (1982) 82:588-605. The tritiated powdered elastin was homogenized and washed in phosphate buffered saline (PBS), pH 7.4 just before use to remove unincorporated radioactivity. A constant amount of human leukocyte elastase (HLE) (67 pmol) was pre-incubated with increasing amounts of 2-O-desulfated heparin (6.7-134 pmol) at 37° C. for 30 minutes in a final volume of 1.0 ml Hepes buffer (0.125 M, 0.125% Triton-X-100, pH 7.5). An aliquot of 900 microliters of each reaction mixture was incubated with 5 mg ^3 H-elastin and 100 microliters of 0.9% saline at 37° C. Solubilized peptides were separated from the elastin suspension by filtration through medium-porosity filter paper. The rate of degradation was determined by quantifying the solubilized ^3 H peptides.

[4] = tested on: factor Xa; test: Anti-factor Xa activity, plasma treated with Russell viper venom; format: biochemical; details: for Anti-factor Xa Activity (test time): control plasma 35 sec.
Method: The 2-O-desulfated heparin from Example III was also studied to determine whether plasma dilutions of 0.1 mg/ml heparin or heparin, desulfated according to Example III, inhibited factor Xa, prolonging test time in an assay for Xa activity utilizing plasma treated with Russell viper venom.

[5] = tested on: cathepsin G; test: Inhibition of cathepsin G, substrate Suc-Ala-Ala-Pro-Phe-pNA; format: biochemical; details: for Inhibition of cathepsin G, in words: I:E ratios of greater than 0.4
Method: (§1) The inhibition of HLE by 2-O-desulfated heparin of Example III was measured by incubating a constant amount of HLE (100 pmol) with increasing amounts of 2-O-desulfated heparin ([…]) for 30 minutes at 25° C. in 500 microliters of Hepes buffer (0.125 M, 0.125% Triton-X-100, pH 7.5) diluted to the final volume of 900 microliters. The remaining enzyme activity was measured by adding 100 microliters of 3 mM N-Suc-Ala-Ala-Val-NA (Sigma Chemicals, St. Louis, Mo., made in dimethylsulfoxide [DMSO]) and reading the absorbance of the proteolytically released chromogen 4-Nitroaniline at 405 nm. The percentage of inhibition was calculated based on enzyme activity without inhibitor.
The inhibition of cathepsin G by 2-O-desulfated heparin of Example III was measured as described above, except that the substrate was 3 mM Suc-Ala-Ala-Pro-Phe-pNA (Sigma Chemical, in DMSO).

[6] = tested on: human test serum; test: Activated partial thromboplastin time in vitro; format: biochemical; details: for Time to Clot Formation: control 35-45
Method: The anti-coagulant potential of the desulfated heparin from Example III was studied by determining its effect on the activated partial thromboplastin time (APPT) in vitro. The test was performed in the usual fashion used to monitor the anti-coagulant effect of heparin clinically in patients. The test used 0.1 and 1.0 mg/ml heparin or heparin, 2-O-desulfated according to Example III, added to human test serum in vitro.

[7] = tested on: blood coagulation; details: Rej et al. and Jaseja et al.; cited from earlier work
[8] = tested on: rats; details: rat, in vivo, 10 mg/kg
[9] = tested on: human leukocyte elastase (HLE); test: Inhibition of HLE, chromogenic substrate N-Suc-Ala-Ala-Val-NA; format: biochemical; details: for Percent inhibition of HLE: substrate N-Suc-Ala-Ala-Val-NA
Method: The inhibition of HLE by partially N-desulfated heparin of Example I was measured by incubating a constant amount of HLE (100 pmol) with increasing amounts of partially N-desulfated heparin (10-50 pmol, I:E ratio 0.1-0.5) for 30 minutes at 25° C. in 500 microliters of Hepes buffer (0.125 M, 0.125% Triton-X-100, pH 7.5) diluted to the final volume of 900 microliters. The remaining enzyme activity was measured by adding 100 microliters of 3 mM N-Suc-Ala-Ala-Val-NA (Sigma Chemicals, St. Louis, Mo., made in dimethylsulfoxide [DMSO]) and reading the absorbance of the proteolytically released chromogen 4-Nitroaniline at 405 nm. The percentage of inhibition was calculated based on enzyme activity without inhibitor.
as §1

[10] = tested on: factor Xa; test: Anti-Xa activity, amidolytic assay with chromogenic peptide substrate; format: biochemical
Text: (§2) Heparin modifications HM0500393 through HM0505293 were made from the same lot of porcine intestinal mucosal sodium heparin having 173.0 units/mg USP anticoagulant activity (USP method) and approximately 150 units/mg anti-Xa activity (by amidolytic assay using commercially available chromogenic peptide substrate). Preparation of modifications began with dissolution of 50 to 100 gm heparin to 5-10% concentration in deionized water, followed by addition of sodium borohydride.

[11] = tested on: blood coagulation; test: USP anticoagulant activity
Text: as §2

[12] = plasma dilution 1:2 of 0.1 mg/ml
[13] = plasma dilution 1:10 of 0.1 mg/ml
[14] = plasma dilution 1:100 of 0.1 mg/ml
[15] = plasma dilution 1:1000 of 0.1 mg/ml
[16] = Conc. 0.1 mg/ml in human test serum
[17] = Conc. 1.0 mg/ml in human test serum

**Q.** Which “Inhibition of elastase, in words” value [1] does the source give for dextran sulfate here?
**A.** The value was “potent inhibitor of elastase”.

**Q.** Which results are given for 2-O-desulfated heparin [ODH]?
**A.** Inhibition of elastase induced injury in vivo, in words [2]: potent inhibitors of elastase induced injury in vivo; PMN in bronchoalveolar lavage fluid [2]: 9.83 ×10^6 Cells; Protein in bronchoalveolar lavage fluid [2]: 65.80 mg/mL; Total Hemoglobin in bronchoalveolar lavage fluid [2]: 1.5 mg; Percent inhibition of HLE ([3]; I:E ratio 0.1:1): 73%; Percent inhibition of HLE ([3]; I:E ratio 0.2:1): 77%; Percent inhibition of HLE ([3]; I:E ratio 0.4:1): 72%; Percent inhibition of HLE ([3]; I:E ratio 0.5:1): 85%; Percent inhibition of HLE ([3]; I:E ratio 1.0:1): 85%; Percent inhibition of HLE ([3]; I:E ratio 2.0:1): 84%; Antifactor Xa activity, in words [4]: little antifactor XA activity; Anti-factor Xa Activity (test time) [4, 12]: 42 s; Anti-factor Xa Activity (test time) [4, 13]: 33 s; Anti-factor Xa Activity (test time) [4, 14]: 32 s; Anti-factor Xa Activity (test time) [4, 15]: 32 s; Percent inhibition of Cathepsin G ([5]; I:E ratio 0.1:1): 14%; Percent inhibition of Cathepsin G ([5]; I:E ratio 0.2:1): 54%; Percent inhibition of Cathepsin G ([5]; I:E ratio 0.4:1): 56%; Percent inhibition of Cathepsin G ([5]; I:E ratio 0.8:1): 69%; Percent inhibition of Cathepsin G ([5]; I:E ratio 1.0:1): 69%; Percent inhibition of Cathepsin G ([5]; I:E ratio 2.0:1): 67%; Inhibition of cathepsin G, in words [5]: significant inhibition of cathepsin G; Ability to prolong the APTT, in words [6]: little ability to prolong the APTT; Time to Clot Formation [6, 16]: 38 s; Time to Clot Formation [6, 17]: 42 s; Anticoagulant activity, in words [7]: minimal anticoagulant activity; Alveolar hemorrhage [8]: produced no alveolar hemorrhage; HLE inhibitory activity, in words [9]: significant inhibition of human leukocyte elastase; Percent inhibition of HLE ([9]; I:E ratio 0.1:1): 20%; Percent inhibition of HLE ([9]; I:E ratio 0.2:1): 74%; Percent inhibition of HLE ([9]; I:E ratio 0.3:1): 84%; Percent inhibition of HLE ([9]; I:E ratio 0.4:1): 85%; Percent inhibition of HLE ([9]; I:E ratio 0.5:1): 84%; Percent inhibition of HLE ([9]; I:E ratio 0.6:1): 100%

**Q.** Which “Inhibition of elastase, in words” value [1] does the source give for dextran [non-sulfated dextran] here?
**A.** The value was “is not”.

**Q.** What does the source list for heparin?
**A.** anti-Xa activity [10]: approximately 150 units/mg; Inhibition of elastase induced injury in vivo, in words [2]: potent inhibitors of elastase induced injury in vivo; PMN in bronchoalveolar lavage fluid [2]: 10.83 ×10^6 Cells; Protein in bronchoalveolar lavage fluid [2]: 41.06 mg/mL; Total Hemoglobin in bronchoalveolar lavage fluid [2]: 0.867 mg; Percent inhibition of HLE ([3]; I:E ratio 0.1:1): 72%; Percent inhibition of HLE ([3]; I:E ratio 0.2:1): 95%; Percent inhibition of HLE ([3]; I:E ratio 0.4:1): 92%; Percent inhibition of HLE ([3]; I:E ratio 0.5:1): 94%; Percent inhibition of HLE ([3]; I:E ratio 1.0:1): 97%; Percent inhibition of HLE ([3]; I:E ratio 2.0:1): 97%; Anti-factor Xa Activity (test time) [4, 12]: > 480 s; Anti-factor Xa Activity (test time) [4, 13]: > 420 s; Anti-factor Xa Activity (test time) [4, 14]: 42 s; Anti-factor Xa Activity (test time) [4, 15]: 32 s; Percent inhibition of Cathepsin G ([5]; I:E ratio 0.1:1): 31%; Percent inhibition of Cathepsin G ([5]; I:E ratio 0.2:1): 49%; Percent inhibition of Cathepsin G ([5]; I:E ratio 0.4:1): 67%; Percent inhibition of Cathepsin G ([5]; I:E ratio 0.8:1): 78%; Percent inhibition of Cathepsin G ([5]; I:E ratio 1.0:1): 76%; Percent inhibition of Cathepsin G ([5]; I:E ratio 2.0:1): 76%; Inhibition of cathepsin G, in words [5]: significant inhibition of cathepsin G; Time to Clot Formation [6, 16]: 80 s; Time to Clot Formation [6, 17]: > 150 s; USP Activity (anti-coagulant activity) ([11]; Table VII): 173.0 u/mg; USP anticoagulant activity ([11]; listed as porcine intestinal mucosal sodium heparin): 173.0 units/mg; USP anticoagulant activity ([11]; listed as starting heparin): 170 units/mg; HLE inhibitory activity, in words [9]: significant inhibition of human leukocyte elastase; also recorded: significantly inhibited human leukocyte elastase (HLE) at I:E ratios of greater than 0.2; Percent inhibition of HLE ([9]; I:E ratio 0.2:1): 72% and 51.000%; Percent inhibition of HLE ([9]; I:E ratio 0.2:1, listed as H): 81% and 79%; Percent inhibition of HLE ([9]; I:E ratio 0.3:1): 83% and 91.000%; Percent inhibition of HLE ([9]; I:E ratio 0.3:1, listed as H): 88%; Percent inhibition of HLE ([9]; I:E ratio 0.4:1): 88%; Percent inhibition of HLE ([9]; I:E ratio 0.4:1, listed as H): 87% and 90%; Percent inhibition of HLE ([9]; I:E ratio 0.5:1): 93% and 97.000%; Percent inhibition of HLE ([9]; I:E ratio 0.5:1, listed as H): 87% and 91%; Percent inhibition of HLE ([9]; I:E ratio 0.6:1): 99%; Percent inhibition of HLE ([9]; I:E ratio 1:1): 98%; Percent inhibition of HLE ([9]; I:E ratio 1.5:1): 98%; Percent inhibition of HLE ([9]; I:E ratio 2:1): 98% and 99.000%
